Assay results published in patent publication US12215389B2, “Compositions for detecting epigenetic modifications” (EXACT SCIENCES CORPORATION, priority 2007, dated 2025).

How the values were obtained:
[1] = test system: NDRG4 or OSMR plasmid material; test: Real-time MSP assay designs on plasmid material; parameters: key to Ct / Duplicate Ct / Average Ct: cycle number at which amplification curve crosses threshold; settings: for PCR efficiency: from standard curve on plasmid material
Experimental: Plasmid material corresponding to a promoter region of NDRG4 and OSMR gene was used to test additional assay designs. The plasmid for the standard curve was generated as follows: the promoter sequence as defined by the primers is PCR amplified and cloned (using suitable isolated and bisulphite modified cell line DNA). The sequence is verified by sequencing and compared to the published promoter sequence. A serial dilution of either NDRG4 or OSMR plasmid material (2×10^6 to 2×10^1 copies/5 μl) was loaded in duplicate. 5 μl of plasmid dilution or buffer (non template control) was added to a 20 μl PCR mix containing the specified primer and beacon detector sequences as previously described. Results were generated using the SDS 2.2 software from Applied Biosystems with automatic baseline and threshold settings. Data were exported as Ct values (cycle number at which the amplification curves cross the threshold value, set automatically by the software).

[2] = test system: methylated gene promoters in FFPE tissue DNA; test: Real-time MSP on colon tissue samples; parameters: species or system human; settings: for Specificity (%) / Sensitivity (%): 50 cases (adenoma + carcinoma) vs 39 controls, tissue
Experimental: Real-time MSP was applied on a 7900HT fast real-time PCR system (Applied Biosystems). 2.4 μl of the modified DNA (equivalent to 2.5 μg unconverted DNA) was added to a PCR mix (total volume 12 μl) containing buffer (16.6 mM (NH4)2SO4, 67 mM Tris (pH 8.8), 6.7 mM MgCl2, 10 mM β-mercaptoethanol), dNTPs (5 mM), forward primer (6 ng), reverse primer (18 ng), molecular beacon (0.16 μM), BSA (0.1 μg), and Jumpstart DNA Taq polymerase (0.4 units; Sigma Aldrich). Cycle program used was as follows: 5 minutes 95° C., followed by 45 cycles of 30 seconds 95° C., 30 seconds 57° C. (51° C. for APC), and 30 seconds 72° C., followed by 5 minutes 72° C. A standard curve (2×106—20 copies) was included to determine copy numbers of unknown samples by interpolation of their Ct values to the standard curve.
Marker selection in colon tissue: Based on re-expression, 224 different gene assays representing 145 gene promotors were tested on the Base5 methylation profiling platform (data not shown, see reference 1 for details). The 37 most differentially methylated gene sequences assessing 29 gene promoters were validated on retrospectively collected tumors from 65 colorectal cancer patients (all stages) and 74 distant resection ends (histopathologically normal) using real-time MSP. Several markers reliably detected CRC in those tissue samples (data not shown). The results were confirmed on an independent test set containing 39 tissue controls (non-cancerous), 34 carcinomas and 16 adenomas. Several combinations of the tested markers reliably detected CRC with high specificity and sensitivity.
The ten best performing markers GATA5, GATA4, SFRP1, SFRP2, APC, MGMT, NDRG4, OSMR, JPH3 and ADAM23 were validated with primer sets and beacon probes as specified in Table 24. In addition to the colon test genes, the independent reference gene β-Actin (ACT) was also measured. The ratios between the colon test genes and ACT were calculated, and are the test result of the assay.
Marker candidates identified by re-expression were screened using 37 real-time methylation specific PCR (real-time MSP) assays. These assays were used to assess the methylation status of 29 gene promoters in 293 formalin-fixed paraffin-embedded (FFPE) tissue samples collected from various clinics. Samples included 99 carcinomas of various stages, 16 adenomas, 63 samples from patients with cancer other than CRC (20 breast [stages I-III], 22 bladder [stages I-III], 21 lung [stages I and II]), 39 samples from patients with no evidence of cancer and 76 distant resection ends (histopathologically normal) from CRC patients. These samples were divided into training and independent test sets, and used to select the gene methylation assays best able to discriminate between cancerous and non-cancerous samples. The training set included retrospectively collected tumors from 65 colorectal cancer patients (all stages) and 74 distant resection ends. Using the 10 best performing genes the results were confirmed on an independent test set containing 59 samples from patients with cancer other than CRC, 39 non-cancerous controls and 50 cancer cases (34 carcinomas and 16 adenomas).
The individual performance of the 10 best performing tissue markers OSMR, SFRP1, GATA4, SFRP2, NDRG4, ADAM23, GATA5, MGMT, APC and JPH3 is shown in FIG. 7, when the analytical cut-off was set to give 100% specificity, except for JPH3 where a specificity of 95% was obtained (based on the 39 non-cancerous controls). In addition to the colon test genes, the independent reference gene β-Actin (ACT) was also measured. The ratios between the colon test genes and ACT were calculated, and are the test result of the assay.

[3] = test system: methylated gene promoters in fecal DNA; test: Real-time MSP on stool (fecal) DNA; parameters: species or system human; settings: fecal samples; for Sens adenoma: 13 samples; for Sens CRC: 15 samples; for Spec: 19 samples
Source text: A standardized multicenter screening trial (The Netherlands) was initiated in 2006. In this trial, non symptomatic subjects aged 50 or above are screened with colonoscopy, FOBT and real-time MSP using DNA from stool and blood. In addition, prospectively collected stool samples from multiple centers (Germany and The Netherlands) were used. In these trials, symptomatic patients, attending a Gastroenterology clinic and ultimately diagnosed with CRC, provided a stool sample for use in real-time MSP. From the ongoing trials 147 stool samples were available for the present study. 3 main categories of stool samples were used: 67 samples with no suspicious findings, 58 adenomas and 22 samples from patients covering all stages of CRC, with 90% representing early stage disease.
After defecation in a special bucket, patients added 250 ml of stool homogenization buffer (Amresco, Solon, Ohio, USA) to the sample. Samples were shipped to the laboratory and further processed within 72 hours after defecation. Stool homogenization buffer was added to a ratio 1:7, and the samples were homogenized and aliquoted in portions of 32 ml.
Single aliquots (32 ml containing the equivalent of 4 g of stool) were centrifuged for 5 minutes at 2540 rcf at 20° C. The supernatant was retained and centrifuged a second time (10 minutes at 16500 rcf at 4° C.). 22 ml of the supernatant obtained following the second centrifugation step was incubated with 5 μl Rnase A for 60 minutes at 37° C. Total DNA was then SodiumAcetate (pH 5.2)-isopropanol precipitated and washed with 70% ethanol. The DNA was resuspended in 4 ml 1×TE (pH 7.4). 400 μl 10× buffer (240 mM EDTA (pH=8.0), 750 mM NaC), 400 μl 10% SDS, and 20 μl Proteinase K (20 mg/ml) was added and the samples were incubated at 48° C. overnight at constant shaking (225 RPM). After centrifugation (3000 RCF for 30 seconds at room temperature), 5 ml of Phenol:Chloroform:Isoamylalcohol (25:24:1, v/v:Invitrogen) was added and incubated for 10 minutes at room temperature shaking at 225 RPM and centrifuged for 5 minutes at 3000 RCF. The aqueous layer was transferred to a new tube containing 5 ml of Phenol:Chloroform:Isoamylalcohol. Again, the samples were incubated for 10 minutes at room temperature shaking at 225 RPM and centrifuged for 5 minutes at 3000 RCF at room temperature. The aqueous layer was transferred to a new tube and DNA was precipitated by adding 500 μl 7.5 M Ammonium Acetate, 5 μl glycogen and 10 ml of cold 100% Ethanol (−20° C.), further incubated at −20° C. for at least 1 hour and centrifuged at 15000 RCF for 30 minutes at 4° C. Pellets were washed with 3.5 ml freshly prepared 70% Ethanol and air dried. Pellets were finally resuspended in 2 ml of LoTE pH 8.0 and stored at −80° C., until further processing.
An upscaled DNA modification step was applied to 32 μg of the obtained DNA. 16 Aliquots of 2 μg of DNA were subjected to bisulfite modification in 96-wells format on a pipetting robot (Tecan), using the EZ-96DNA Methylation kit (Zymo Research), according to the manufacturer's protocol. Basically, aliquots of 45 μl were mixed with 5 μl of M-Dilution Buffer and incubated at 37° C. for 15 minutes shaking at 1100 rpm. Then 100 μl of the diluted CT Conversion Reagent was added and samples were incubated at 70° C. for 3 hours, shaking at 1100 rpm in the dark. After conversion, the samples were desalted by incubation on ice for 10 minutes and addition of 400 μl of M-Binding buffer. The samples were loaded on a Zymo-Spin I Column in a collection tube and after centrifugation washed with 200 μl of M-Wash Buffer. 200 μl of M-Desulphonation Buffer was put onto the column and incubated at room temperature for 15 minutes. After centrifugation of the columns, they were washed twice with 200 μl of M-Wash Buffer. Finally, the DNA was washed from the column in 50 μl Tris-HCl 1 mM pH8.0 and stored at −80° C., until further processing.

[4] = plasmid standard, quantity 20 copies
[5] = plasmid standard, quantity 200 copies
[6] = plasmid standard, quantity 2000 copies
[7] = plasmid standard, quantity 20000 copies
[8] = plasmid standard, quantity 200000 copies
[9] = plasmid standard, quantity 2000000 copies
[10] = 16 adenoma tissue samples vs 39 controls
[11] = 34 carcinoma tissue samples vs 39 controls

Substance	PCR efficiency [1] [%]	Average Ct [1, 4]	Ct [1, 4]	Duplicate Ct [1, 4]	Average Ct [1, 5]	Ct [1, 5]	Duplicate Ct [1, 5]	Average Ct [1, 6]	Ct [1, 6]	Duplicate Ct [1, 6]	Average Ct [1, 7]	Ct [1, 7]	Duplicate Ct [1, 7]	Average Ct [1, 8]	Sensitivity [2, 10] [%]	Specificity [2, 10] [%]	Sensitivity [2, 11] [%]	Specificity [2, 11] [%]	Specificity (%) [2] [%]	Sensitivity (%) ([2]; first cut off ratio)	other results
OSMR_3 (DNA TTTGGTCGGGGTAGGAGTAGC; listed as DNA, chemistry not given here)	97.2	33.98	34.18	33.77	30.59	30.51	30.67	27.19	27.22	27.16	23.90	23.97	23.83	20.35	–	–	–	–	–	–	Ct ([1]; NTC (non template control), quantity 0): 38.13; Ct [1, 8]: 20.41; Duplicate Ct [1, 8]: 20.29; Average Ct [1, 9]: 17.04; Ct [1, 9]: 16.93; Duplicate Ct [1, 9]: 17.16
MGMT (DNA TTTCGACGTTCGTAGGTTTTCGC; listed as DNA, chemistry not given here)	–	–	–	–	–	–	–	–	–	–	–	–	–	–	63	100	35	100	100	44	–
OSMR_4 (DNA TTTGGTCGGGGTAGGAGTAGC; listed as DNA, chemistry not given here)	100.8	34.37	34.63	34.12	31.28	31.37	31.18	28.08	28.24	27.91	24.72	24.79	24.64	21.31	–	–	–	–	–	–	Ct [1, 8]: 21.56; Duplicate Ct [1, 8]: 21.05; Average Ct [1, 9]: 18.07; Ct [1, 9]: 18.24; Duplicate Ct [1, 9]: 17.90
OSMR (3) (DNA TTTGGTCGGGGTAGGAGTAGC; listed as DNA, chemistry not given here)	–	–	–	–	–	–	–	–	–	–	–	–	–	–	88	100	88	100	100	88	Sens adenoma [3]: 8%; Sens CRC [3]: 67%; Spec [3]: 100%
GATA4 (DNA AGGTTAGTTAGCGTTTTAGGGTC; listed as DNA, chemistry not given here)	–	–	–	–	–	–	–	–	–	–	–	–	–	–	88	100	74	100	100	78	Sens adenoma [3]: 15%; Sens CRC [3]: 73%; Spec [3]: 100%; Sensitivity (%) ([2]; second cut off ratio, between ( )): (82) %
